Experimental data reported in publication PMC9503767, “Site-Differentiated Iron–Sulfur Cluster Ligation Affects Flavin-Based Electron Bifurcation Activity” (Metabolites, 2022).

Target: T1, NfnL (large subunit of NADH-dependent reduced-ferredoxin: NADP+ oxidoreductase NfnSL) (Pyrococcus furiosus, UniProt Q8U195, E126C)
T1 construct: gene sudA; isolated NfnL subunit
Assay: intrinsic protein fluorescence quenching titration (ex […] nm, em […] nm), quadratic tight-binding fit

T1 sequence (Q8U195 whole entry E126C): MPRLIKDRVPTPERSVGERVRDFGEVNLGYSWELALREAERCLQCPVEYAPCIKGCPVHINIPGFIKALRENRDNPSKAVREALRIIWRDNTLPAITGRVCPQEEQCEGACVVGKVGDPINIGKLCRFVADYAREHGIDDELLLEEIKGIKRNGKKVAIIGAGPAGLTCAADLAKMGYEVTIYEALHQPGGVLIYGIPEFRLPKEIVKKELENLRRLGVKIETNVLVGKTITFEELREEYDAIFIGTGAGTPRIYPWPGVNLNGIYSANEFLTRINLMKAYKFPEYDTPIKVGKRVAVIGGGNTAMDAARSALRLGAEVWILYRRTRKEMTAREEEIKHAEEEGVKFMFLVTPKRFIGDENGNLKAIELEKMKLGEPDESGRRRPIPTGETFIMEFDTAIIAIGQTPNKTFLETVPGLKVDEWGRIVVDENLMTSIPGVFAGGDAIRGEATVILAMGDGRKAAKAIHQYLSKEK

Row | Compound | Kd [nM]
1 | NC(=O)c1ccc[n+]([C@@H]2O[C@H](COP(=O)([O-])OP(=O)(O)OC[C@H]3O[C@@H](n4cnc5c(N)ncnc54)[C@H](OP(=O)(O)O)[C@@H]3O)[C@@H](O)[C@H]2O)c1 [NADP+] | 2600 ± 600
2 | NC(=O)C1=CN([C@@H]2O[C@H](COP(=O)(O)OP(=O)(O)OC[C@H]3O[C@@H](n4cnc5c(N)ncnc54)[C@H](OP(=O)(O)O)[C@@H]3O)[C@@H](O)[C@H]2O)C=CC1 [NADPH] | 2600 ± 600
